Measurements from US12570642B2, “GLP-IR modulating compounds” (Gilead Sciences, Inc., priority 2021, dated 2026).

Biological target: GLP-1R (Homo sapiens, UniProt P43220)
Experiment: GLP-1R Activation - cAMP Assay
Type: cell-based
Details: each compound run on one of the two cAMP assays (Assay 1 or Assay 2, not specified)
Outline: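 cAMP rise read by HTRF after 30 min agonist exposure (10-point titration, 37 °C) in HBSS/20 mM Hepes/0.1% BSA, following 1 h pre-incubation. Cells: stable GLP-1R CHO line, 1,000/well, seeded overnight. Sigmoidal fit of response vs log concentration gives EC50.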

[1] = cAMP increase in CHO cells stably expressing GLP-1R

Chain of GLP-1R (P43220 24-463): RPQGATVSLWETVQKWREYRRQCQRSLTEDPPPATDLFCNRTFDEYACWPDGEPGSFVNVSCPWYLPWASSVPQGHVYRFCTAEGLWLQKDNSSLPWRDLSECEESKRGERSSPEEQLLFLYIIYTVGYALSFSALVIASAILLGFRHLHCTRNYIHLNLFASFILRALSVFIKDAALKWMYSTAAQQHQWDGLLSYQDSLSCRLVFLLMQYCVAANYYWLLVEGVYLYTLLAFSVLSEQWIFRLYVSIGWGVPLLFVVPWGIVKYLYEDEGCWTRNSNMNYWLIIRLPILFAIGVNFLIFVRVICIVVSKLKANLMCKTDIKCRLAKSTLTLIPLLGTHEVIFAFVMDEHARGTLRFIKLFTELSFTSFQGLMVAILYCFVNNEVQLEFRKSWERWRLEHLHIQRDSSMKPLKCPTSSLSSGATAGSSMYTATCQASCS

`COC(=O)N1C[C@@H](n2c(Cc3cc(F)c(-c4cccc(OCc5ccc(C#N)cc5F)n4)cc3F)nc3ccc(C(=O)O)cc32)[C@H](OC)C1` [Example 86, 2-(4-(6-((4-cyano-2-fluorobenzyl)oxy)pyridin-2-yl)-2,5-difluorobenzyl)-1-((3R,4R)-4-methoxy-1-(methoxycarbonyl)pyrrolidin-3-yl)-1H-benzo[d]imidazole-6-carboxylic Acid] gave an EC50 ([…]) of 140 nM.
In the case of `COC(=O)N1C[C@@H](OC)[C@@H](n2c(Cc3cc(F)c(-c4cccc(OCc5ccc(C#N)cc5F)n4)cc3F)nc3ccc(C(=O)O)cc32)C1` [Example 87, 2-(4-(6-((4-cyano-2-fluorobenzyl)oxy)pyridin-2-yl)-2,5-difluorobenzyl)-1-((3S,4R)-4-methoxy-1-(methoxycarbonyl)pyrrolidin-3-yl)-1H-benzo[d]imidazole-6-carboxylic Acid], the EC50 ([…]) is reported as 22.5 nM.
For `CO[C@@H]1CN(S(C)(=O)=O)C[C@H]1n1c(Cc2cc(F)c(-c3cccc(OCc4ccc(C#N)cc4F)n3)cc2F)nc2ccc(C(=O)O)cc21` [Example 88], the EC50 ([…]) was 136 nM.
In the case of `CO[C@@H]1CN(S(C)(=O)=O)C[C@@H]1n1c(Cc2cc(F)c(-c3cccc(OCc4ccc(C#N)cc4F)n3)cc2F)nc2ccc(C(=O)O)cc21` [Example 89, 2-(4-(6-((4-cyano-2-fluorobenzyl)oxy)pyridin-2-yl)-2,5-difluorobenzyl)-1-((3S,4R)-4-methoxy-1-(methylsulfonyl)pyrrolidin-3-yl)-1H-benzo[d]imidazole-6-carboxylic Acid], the EC50 ([…]) is reported as 15.3 nM.
`Cn1cc(-c2cc(F)c(COc3cccc(-c4cc(F)c(Cc5nc6ccc(C(=O)O)cc6n5C5COCC5(C)C)cc4F)n3)cn2)cn1` (stereo not drawn) [Example 90] was tested, and the EC50 [1] was 0.7 nM.
`COc1cc(-c2cnn(C)c2)ncc1COc1cccc(-c2cc(F)c(Cc3nc4ccc(C(=O)O)cc4n3C[C@@H](C)OC)cc2F)n1` [Example 91, (R)-2-(2,5-difluoro-4-(6-((4-methoxy-6-(1-methyl-1H-pyrazol-4-yl)pyridin-3-yl)methoxy)pyridin-2-yl)benzyl)-1-(2-methoxypropyl)-1H-benzo[d]imidazole-6-carboxylic Acid] gave an EC50 [1] of 2.06 nM.
`CC1(C)COCC1n1c(Cc2cc(F)c(-c3cccc(OCc4ccc(Cl)nc4)n3)cc2F)nc2ccc(C(=O)O)cc21` (stereo not drawn) [Example 92] showed an EC50 [1] of 0.13 nM.
Molecule `CC1(C)COCC1n1c(Cc2cc(F)c(-c3cccc(OCc4cnc(Cl)cn4)n3)cc2F)nc2ccc(C(=O)O)cc21` (stereo not drawn) [Example 93, 2-(4-(6-((5-chloropyrazin-2-yl)methoxy)pyridin-2-yl)-2,5-difluorobenzyl)-1-(4,4-dimethyltetrahydrofuran-3-yl)-1H-benzo[d]imidazole-6-carboxylic Acid] has an EC50 [1] of 0.35 nM.
Work on `COCCn1c(Cc2cc(F)c(-c3cccc(OCc4cnc(C(F)F)cn4)n3)cc2F)nc2ccc(C(=O)O)cc21` [Example 94] yielded an EC50 [1] of 23.9 nM.
`COCCn1c(Cc2cc(F)c(-c3cccc(OCc4ccc(-n5ccnc5)nc4)n3)cc2F)nc2ccc(C(=O)O)cc21` [Example 95, 2-(4-(6-((6-(1H-imidazol-1-yl)pyridin-3-yl)methoxy)pyridin-2-yl)-2,5-difluorobenzyl)-1-(2-methoxyethyl)-1H-benzo[d]imidazole-6-carboxylic Acid] showed an EC50 [1] of 0.97 nM.
Molecule `COCCn1c(Cc2cc(F)c(-c3cccc(OCc4ccc(C(C)(F)F)cc4)n3)cc2F)nc2ccc(C(=O)O)cc21` [Example 96, 2-(4-(6-((4-(1,1-difluoroethyl)benzyl)oxy)pyridin-2-yl)-2,5-difluorobenzyl)-1-(2-methoxyethyl)-1H-benzo[d]imidazole-6-carboxylic Acid] has an EC50 [1] of 0.98 nM.
`COCCn1c(Cc2ccc(-c3cccc(OCc4ccc(C#N)cc4F)n3)c3c2COC3)nc2ccc(C(=O)O)cc21` [Example 97] gave an EC50 [1] of 21.2 nM.
`COCCOCCOCCn1cc(-c2ccc(COc3cccc(-c4cc(F)c(Cc5nc6ccc(C(=O)O)cc6n5CCOC)cc4F)n3)c(F)c2)cn1` [Example 98] gave an EC50 [1] of 1.43 nM.
Work on `COCCn1c(Cc2cc(F)c(-c3cccc(OCc4ccc(-c5cn(C)nn5)cc4F)n3)cc2F)nc2ccc(C(=O)O)cc21` [Example 99, 2-(2,5-difluoro-4-(6-((2-fluoro-4-(1-methyl-1H-1,2,3-triazol-4-yl)benzyl)oxy)pyridin-2-yl)benzyl)-1-(2-methoxyethyl)-1H-benzo[d]imidazole-6-carboxylic Acid] yielded an EC50 [1] of 0.6 nM.
For `COCCn1c(Cc2cc(F)c(-c3cccc(OCc4ccc(-c5cnn(C(F)F)c5)cc4F)n3)cc2F)nc2ccc(C(=O)O)cc21` [Example 100, 2-(4-(6-((4-(1-(difluoromethyl)-1H-pyrazol-4-yl)-2-fluorobenzyl)oxy)pyridin-2-yl)-2,5-difluorobenzyl)-1-(2-methoxyethyl)-1H-benzo[d]imidazole-6-carboxylic Acid], the EC50 [1] was 0.45 nM.
Molecule `COCCn1c(Cc2cc(F)c(-c3cccc(OCc4ccc(-c5ccnn5C)cc4F)n3)cc2F)nc2ccc(C(=O)O)cc21` [Example 101, 2-(2,5-difluoro-4-(6-((2-fluoro-4-(1-methyl-1H-pyrazol-5-yl)benzyl)oxy)pyridin-2-yl)benzyl)-1-(2-methoxyethyl)-1H-benzo[d]imidazole-6-carboxylic Acid] has an EC50 [1] of 1.46 nM.
For `COCCn1c(Cc2cc(F)c(-c3cccc(OCc4ccc(-c5cc(C(F)(F)F)nn5C)cc4F)n3)cc2F)nc2ccc(C(=O)O)cc21` [Example 102, 2-(2,5-difluoro-4-(6-((2-fluoro-4-(1-methyl-3-(trifluoromethyl)-1H-pyrazol-5-yl)benzyl)oxy)pyridin-2-yl)benzyl)-1-(2-methoxyethyl)-1H-benzo[d]imidazole-6-carboxylic Acid], the EC50 [1] was 22.8 nM.
Work on `COCCn1c(Cc2cc(F)c(-c3cccc(OCc4ccc(-c5cccnc5)cc4F)n3)cc2F)nc2ccc(C(=O)O)cc21` [Example 103, 2-(2,5-difluoro-4-(6-((2-fluoro-4-(pyridin-3-yl)benzyl)oxy)pyridin-2-yl)benzyl)-1-(2-methoxyethyl)-1H-benzo[d]imidazole-6-carboxylic Acid] yielded an EC50 [1] of 1.23 nM.
Molecule `COCCn1c(Cc2cc(F)c(-c3cccc(OCc4ccc(-c5cccnc5C)cc4F)n3)cc2F)nc2ccc(C(=O)O)cc21` [Example 104, 2-(2,5-difluoro-4-(6-((2-fluoro-4-(2-methylpyridin-3-yl)benzyl)oxy)pyridin-2-yl)benzyl)-1-(2-methoxyethyl)-1H-benzo[d]imidazole-6-carboxylic Acid] has an EC50 [1] of 41.3 nM.
In the case of `COCCn1c(Cc2cc(F)c(-c3cccc(OCc4ccc(-c5ccc(C)nc5)cc4F)n3)cc2F)nc2ccc(C(=O)O)cc21` [Example 105, 2-(2,5-difluoro-4-(6-((2-fluoro-4-(6-methylpyridin-3-yl)benzyl)oxy)pyridin-2-yl)benzyl)-1-(2-methoxyethyl)-1H-benzo[d]imidazole-6-carboxylic Acid], the EC50 [1] is reported as 1.55 nM.
`COCCn1cc(-c2ccc(COc3cccc(-c4cc(F)c(Cc5nc6ccc(C(=O)O)cc6n5CCOC)cc4F)n3)c(F)c2)cn1` [Example 106, 2-(2,5-difluoro-4-(6-((2-fluoro-4-(1-(2-methoxyethyl)-1H-pyrazol-4-yl)benzyl)oxy)pyridin-2-yl)benzyl)-1-(2-methoxyethyl)-1H-benzo[d]imidazole-6-carboxylic Acid] gave an EC50 [1] of 2.22 nM.
Molecule `COCCn1c(Cc2cc(F)c(-c3cccc(OCc4ccc(-c5cn(C)nn5)nc4)n3)cc2F)nc2ccc(C(=O)O)cc21` [Example 107, 2-(2,5-difluoro-4-(6-((6-(1-methyl-1H-1,2,3-triazol-4-yl)pyridin-3-yl)methoxy)pyridin-2-yl)benzyl)-1-(2-methoxyethyl)-1H-benzo[d]imidazole-6-carboxylic Acid] has an EC50 [1] of 1.4 nM.
For `COCCn1c(Cc2cc(F)c(-c3cccc(OCc4ccc(-c5cnn(C)c5)nc4)n3)cc2F)nc2ccc(C(=O)O)cc21` [Example 108, 2-(2,5-difluoro-4-(6-((6-(1-methyl-1H-pyrazol-4-yl)pyridin-3-yl)methoxy)pyridin-2-yl)benzyl)-1-(2-methoxyethyl)-1H-benzo[d]imidazole-6-carboxylic Acid], the EC50 [1] was 3.28 nM.
`COCCn1c(Cc2cc(F)c(-c3cccc(OCc4ccc(-c5cnn(C(F)F)c5)nc4)n3)cc2F)nc2ccc(C(=O)O)cc21` [Example 109, 2-(4-(6-((6-(1-(difluoromethyl)-1H-pyrazol-4-yl)pyridin-3-yl)methoxy)pyridin-2-yl)-2,5-difluorobenzyl)-1-(2-methoxyethyl)-1H-benzo[d]imidazole-6-carboxylic Acid] was tested, and the EC50 [1] was 2.51 nM.
`COCCn1c(Cc2cc(F)c(-c3cccc(OCc4ccc(-c5ccnn5C)nc4)n3)cc2F)nc2ccc(C(=O)O)cc21` [Example 110, 2-(2,5-difluoro-4-(6-((6-(1-methyl-1H-pyrazol-5-yl)pyridin-3-yl)methoxy)pyridin-2-yl)benzyl)-1-(2-methoxyethyl)-1H-benzo[d]imidazole-6-carboxylic Acid] was tested, and the EC50 [1] was 4.93 nM.
`C#Cc1ccc(COc2cccc(-c3cc(F)c(Cc4nc5ccc(C(=O)O)cc5n4CCOC)cc3F)n2)c(F)c1` [Example 111] showed an EC50 [1] of 1.46 nM.
In the case of `COCCn1c(Cc2cc(F)c(-c3cccc(OCc4ccc(-c5ncnn5C)cc4F)n3)cc2F)nc2ccc(C(=O)O)cc21` [Example 112], the EC50 [1] is reported as 23 nM.
`COCCn1c(Cc2cc(F)c(-c3cccc(OCc4ccc(-c5cncn5C)cc4F)n3)cc2F)nc2ccc(C(=O)O)cc21` [Example 113] showed an EC50 [1] of 11 nM.
With `COCCn1c(Cc2cc(F)c(-c3cccc(OCc4ccc(-c5cnn(CC(F)F)c5)cc4F)n3)cc2F)nc2ccc(C(=O)O)cc21` [Example 114] the EC50 [1] was 5.99 nM.
In the case of `CC1(C)COC[C@H]1n1c(Cc2cc(F)c(-c3ccc(F)c(OCc4ccc(C#N)cc4F)n3)cc2F)nc2c(F)cc(C(=O)O)cc21` [Example 116, 2-[[4-[6-[(4-cyano-2-fluoro-phenyl)methoxy]-5-fluoro-2-pyridyl]-2,5-difluoro-phenyl]methyl]-3-[(3S)-4,4-dimethyltetrahydrofuran-3-yl]-7-fluorobenzimidazole-5-carboxylic Acid], the EC50 [1] is reported as 0.005 nM.
